Reference: patent publication EP4818168A1, “FUSED RING COMPOUND, PHARMACEUTICAL COMPOSITION THEREOF AND USE THEREOF” (priority 2023, dated 2025)
Read-outs that look alike come from different tables or passages of the source.

Key:
H82 cells = test: cells; assay type: cell-based; conditions: Homo sapiens
In short: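 After 6 days' compound treatment at 37 °C (final DMSO 0.1%, RPMI1640/10% FBS), viable H82 cells were quantified by ATP-dependent CellTiter-Glo luminescence. Remaining activity was calculated against DMSO and medium wells, and a sigmoidal fit gave IC50.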

AURKA = target: T1, AURKA (Homo sapiens, UniProt O14965); assay type: cell-based
T1 construct: endogenous in cells; host or cells: Jurkat cells
T1 sequence (O14965 1-403): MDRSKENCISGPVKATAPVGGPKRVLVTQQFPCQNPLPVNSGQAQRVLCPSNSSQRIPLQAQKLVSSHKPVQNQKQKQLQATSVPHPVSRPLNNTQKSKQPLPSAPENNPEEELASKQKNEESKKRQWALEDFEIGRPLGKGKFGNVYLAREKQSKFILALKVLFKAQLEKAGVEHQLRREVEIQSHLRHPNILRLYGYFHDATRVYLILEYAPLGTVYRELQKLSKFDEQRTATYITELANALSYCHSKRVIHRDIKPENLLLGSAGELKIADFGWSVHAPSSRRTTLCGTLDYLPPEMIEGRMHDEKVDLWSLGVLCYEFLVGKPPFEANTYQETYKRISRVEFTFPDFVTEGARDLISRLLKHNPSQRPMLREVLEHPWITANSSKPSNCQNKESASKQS
In short: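 AURKA degradation read by western blot: band signal, fluorescent or chemiluminescent, curve-fitted to derive DC50. Cells were Jurkat, plated at 1×10^6 cells/500 µL with compound, then lysed and blotted onto nitrocellulose, primary antibody overnight at 4°C.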

[1] = NCI-H82, read-out: IC50 in H82 Cells
[2] = NCI-H82, H82 cells, 4000 cells/well, CellTiter-Glo, read-out: IC50 in H82 Cells
[3] = 100 nM compound, Jurkat cells, 24 h, Table 2
[4] = 1 µM compound, Jurkat cells, 24 h, Table 2

| Structure (SMILES) | IC50 (H82 cells; [1]) [µM] | Percentage of AURKA Degradation Induced by 100 nM Compound in Jurkat Cells (AURKA) | Percentage of AURKA Degradation Induced by 1 µM Compound in Jurkat Cells (AURKA) | IC50 (H82 cells; [2]) [µM] | Percentage of AURKA Degradation Induced by 100 nM Compound in Jurkat Cells (AURKA; [3]) | Percentage of AURKA Degradation Induced by 1 µM Compound in Jurkat Cells (AURKA; [4]) |
| --- | --- | --- | --- | --- | --- | --- |
| O=C1CCN(c2ccc(N3CC(O)(CN4CCN(c5ccc(Nc6ncc7c(n6)-c6ccc(Cl)cc6C(c6c(F)cccc6F)=NC7)cc5)C(=O)C4)C3)nc2)C(=O)N1 [Compound A299] | < 1 | +++ (key: +: Degradation ≤ 30%; ++: 30% < Degradation ≤ 70%; +++: Degradation > 70%) | +++ (key: +: Degradation ≤ 30%; ++: 30% < Degradation ≤ 70%; +++: Degradation > 70%) |  |  |  |
| O=C1CCN(c2ccc(N3CCC(O)(CN4CCN(c5ccc(Nc6ncc7c(n6)-c6ccc(Cl)cc6C(c6c(F)cccc6F)=NC7)cc5)C(=O)C4)CC3)nc2)C(=O)N1 [Compound A300] | < 1 | +++ (key: +: Degradation ≤ 30%; ++: 30% < Degradation ≤ 70%; +++: Degradation > 70%) | +++ (key: +: Degradation ≤ 30%; ++: 30% < Degradation ≤ 70%; +++: Degradation > 70%) |  |  |  |
| CC(C1CCN(c2ccc(N3CCC(=O)NC3=O)cn2)CC1)N1CCN(C23CC(Nc4ncc5c(n4)-c4ccc(Cl)cc4C(c4c(F)cccc4F)=NC5)(C2)C3)C(=O)C1 (stereo not drawn) [Compound A302] |  |  |  | < 1 | +++ (Degradation > 70%) | +++ (Degradation > 70%) |
| CP(C)(=O)c1cc(Nc2ncc3c(n2)-c2ccc(Cl)cc2C(c2c(F)cccc2F)=NC3)ccc1N1CCN(C2CCN(c3ccc(N4CCC(=O)NC4=O)cn3)CC2)CC1=O [Compound A303] |  |  |  | < 1 | +++ (Degradation > 70%) | +++ (Degradation > 70%) |
| N#Cc1cc(N2CCN(C(=O)C3CCN(c4ccc(Nc5ncc6c(n5)-c5ccc(Cl)cc5C(c5c(F)cccc5F)=NC6)cc4)CC3)CC2)ccc1N1CCC(=O)NC1=O [Compound A304] |  |  |  | < 1 | +++ (Degradation > 70%) | +++ (Degradation > 70%) |
| N#Cc1ccc2c(c1)C(c1c(F)cccc1F)=NCc1cnc(Nc3ccc(N4CCN(C5CCN(c6ccc(N7CCC(=O)NC7=O)cn6)CC5)CC4=O)cc3)nc1-2 [Compound A305] |  |  |  | < 1 | +++ (Degradation > 70%) | +++ (Degradation > 70%) |
| O=C1CCN(c2ccc(N3CCC(N4CCN(C56CC(Nc7ncc8c(n7)-c7ccc(Cl)cc7C(c7c(F)cccc7F)=NC8)(C5)C6)C(=O)C4)CC3)nc2)C(=O)N1 [Compound A306] |  |  |  | < 1 | ++ (30% < Degradation ≤ 70%) | +++ (Degradation > 70%) |
| O=C1CCN(c2ccc(N3CCN(C(=O)C4CN(c5ccc(Nc6ncc7c(n6)-c6ccc(Cl)cc6C(c6c(F)cccc6F)=NC7)cc5)CCO4)CC3)nc2)C(=O)N1 (stereo not drawn) [Compound A308] |  |  |  | < 1 | +++ (Degradation > 70%) | +++ (Degradation > 70%) |
| CN1CCN(c2ccc(N3CCC(=O)NC3=O)cn2)CC1C(=O)N1CCN(c2ccc(Nc3ncc4c(n3)-c3ccc(Cl)cc3C(c3c(F)cccc3F)=NC4)cc2)CC1 (stereo not drawn) [Compound A309] |  |  |  | < 1 | ++ (30% < Degradation ≤ 70%) | ++ (30% < Degradation ≤ 70%) |
| O=C1CCN(c2ccc(N3CCOC(CN4CCN(C56CC(Nc7ncc8c(n7)-c7ccc(Cl)cc7C(c7c(F)cccc7F)=NC8)(C5)C6)C(=O)C4)C3)nc2)C(=O)N1 (stereo not drawn) [Compound A311] |  |  |  | < 1 | +++ (Degradation > 70%) | +++ (Degradation > 70%) |
| CC1(C)CN(C23CC(Nc4ncc5c(n4)-c4ccc(Cl)cc4C(c4c(F)cccc4F)=NC5)(C2)C3)C(=O)CN1CC1CCN(c2ccc(N3CCC(=O)NC3=O)cn2)CC1 [Compound A316] | < 1 | ++ (key: +: Degradation ≤ 30%; ++: 30% < Degradation ≤ 70%; +++: Degradation > 70%) | ++ (key: +: Degradation ≤ 30%; ++: 30% < Degradation ≤ 70%; +++: Degradation > 70%) |  |  |  |
| N#Cc1ccc2c(c1)C(c1c(F)cccc1F)=NCc1cnc(Nc3ccc(N4CC(F)(CN5CCN(c6ccc(N7CCC(=O)NC7=O)cn6)CC5)C4)cc3)nc1-2 [Compound A319] |  |  |  | < 1 | +++ (Degradation > 70%) | +++ (Degradation > 70%) |
| O=C1CCN(c2ccc(N3CCC(C(=O)N4CCN(c5ccc(Nc6ncc7c(n6)-c6ccc(Cl)cc6C(c6nccs6)=NC7)cc5)CC4)CC3)nc2)C(=O)N1 [Compound A320] |  |  |  | < 1 | +++ (Degradation > 70%) | +++ (Degradation > 70%) |
| N#Cc1ccc2c(c1)C(c1nccs1)=NCc1cnc(Nc3ccc(N4CCN(C5CCN(c6ccc(N7CCC(=O)NC7=O)cn6)CC5)CC4=O)cc3)nc1-2 [Compound A322] |  |  |  | < 1 | +++ (Degradation > 70%) | +++ (Degradation > 70%) |
| N#Cc1nc(N2CCN(C(=O)C3CCN(c4ccc(Nc5ncc6c(n5)-c5ccc(Cl)cc5C(c5c(F)cccc5F)=NC6)cc4)CC3)CC2)ccc1N1CCC(=O)NC1=O [Compound A323] |  |  |  | < 1 | +++ (Degradation > 70%) | +++ (Degradation > 70%) |
| O=C1CCN(c2ccc(N3CCN(C(=O)[C@@H]4CN(c5ccc(Nc6ncc7c(n6)-c6ccc(Cl)cc6C(c6c(F)cccc6F)=NC7)cc5)CCO4)CC3)nc2)C(=O)N1 [Compound A324] |  |  |  | < 1 | +++ (Degradation > 70%) | +++ (Degradation > 70%) |
| O=C1CCN(c2ccc(N3CCN(C(=O)[C@H]4CN(c5ccc(Nc6ncc7c(n6)-c6ccc(Cl)cc6C(c6c(F)cccc6F)=NC7)cc5)CCO4)CC3)nc2)C(=O)N1 [Compound A325] |  |  |  | < 1 | +++ (Degradation > 70%) | +++ (Degradation > 70%) |
| N#Cc1cc(N2CCC(=O)NC2=O)cnc1N1CCN(C(=O)C2CCN(c3ccc(Nc4ncc5c(n4)-c4ccc(Cl)cc4C(c4c(F)cccc4F)=NC5)cc3)CC2)CC1 [Compound A326] |  |  |  | < 1 | +++ (Degradation > 70%) | +++ (Degradation > 70%) |
| O=C1CCN(c2ccc(N3CC4(CC(N5CCN(c6ccc(Nc7ncc8c(n7)-c7ccc(Cl)cc7C(c7c(F)cccc7F)=NC8)cc6)C(=O)C5)CO4)C3)nc2)C(=O)N1 (stereo not drawn) [Compound A329] |  |  |  | < 1 | +++ (Degradation > 70%) | +++ (Degradation > 70%) |
| O=C1CCN(c2ccc(N3CC4(CC(N5CCN(c6ccc(Nc7ncc8c(n7)-c7ccc(Cl)cc7C(c7nccs7)=NC8)cc6)C(=O)C5)CO4)C3)nc2)C(=O)N1 (stereo not drawn) [Compound A330] |  |  |  | < 1 | +++ (Degradation > 70%) | +++ (Degradation > 70%) |
| NC(=O)c1cc(N2CCN(C(=O)C3CCN(c4ccc(Nc5ncc6c(n5)-c5ccc(Cl)cc5C(c5c(F)cccc5F)=NC6)cc4)CC3)CC2)ncc1N1CCC(=O)NC1=O [Compound A334] |  |  |  | < 1 | + (Degradation ≤ 30%) | + (Degradation ≤ 30%) |
| O=C1CCN(c2ccc(N3CCC4(CC3)CC(N3CCN(c5ccc(Nc6ncc7c(n6)-c6ccc(Cl)cc6C(c6c(F)cccc6F)=NC7)cc5)C(=O)C3)CO4)nc2)C(=O)N1 (stereo not drawn) [Compound A336] |  |  |  | < 1 | +++ (Degradation > 70%) | +++ (Degradation > 70%) |
